We go through six compounds from patent publication US9012628B2, “Crystalline form of ertapenem sodium and preparation method therefor” (CSPC Zhongqi Pharmaceutical Technology (Shijiazhuang) Co. …, priority 2010, dated 2015).

Molecules are shown by their SMILES.

This series in a line: Comparative tests for stability of the crystalline form E and other crystalline forms (storage, total impurity and content). It is filed as physicochemical. The note with it: for Stability compared between solid forms (conclusion from Table 5): stored 1 year at 6° C. and −20° C. As to the method:
Comparative tests for stability of the crystalline form E and other crystalline forms. Crystalline form A and crystalline form B of ertapenem sodium were prepared according to the methods disclosed in WO03026572, crystalline form C of ertapenem sodium was prepared according to the method disclosed in WO03027067, crystalline form D of ertapenem sodium was prepared according to the method disclosed in WO2009150630, and amorphous product of ertapenem sodium was prepared according the method disclosed in CN1752090A. The above-mentioned crystalline forms A, B, C, D, the amorphous solid of ertapenem sodium, and the crystalline form E prepared according to Example 1 were stored for 1 year under refrigerating at 6° C. and freezing at −20° C., and were sampled at month 1, month 3, month 6, month 9, and month 12, respectively, and the total impurity and content of the reserved samples were tested, and the specific data are shown in Table 5: […]

As to `C[C@@H](O)[C@H]1C(=O)N2C(C(=O)[O-])=C(S[C@@H]3CN[C@H](C(=O)Nc4cccc(C(=O)O)c4)C3)[C@H](C)[C@H]12.[Na+]` (relative stereo) [Crystalline form E, (1R,5S,6S,8R,2S*,4S*)-2-[2-[(3-carboxyphenyl)carbamoyl]-pyrrolidinyl-4-thio]-6-(1-hydroxyethyl)-1-methylcarbapenem-3-carboxylic acid monosodium salt], the “Stability compared between solid forms (conclusion from Table 5)” value (from here on “Stability compared between solid forms”) was “comparable stability, which is more stable than the amorphous product and the crystalline form D”. Where the note is “Freezing −20° C., month 0”, this compound returned a Content of 99.1% and a Total impurity of 0.8%. Also, where the note is “Freezing −20° C., month 3”, the Content is recorded as 99.0% and the Total impurity turned out to be 0.8%. Under “Freezing −20° C., month 6”, the Content was found to be 99.1% and the Total impurity was determined as 0.8%. For the same compound, where the note is “Freezing −20° C., month 9”, the Content is given as 99.0% and the Total impurity is listed as 0.8%. Under “Freezing −20° C., month 12”, this compound came in with a Content of 98.9% and a Total impurity of 0.8%. In addition, for the setting “Refrigerating 6° C., month 0”, the Content is 99.1% and the Total impurity is on record as 0.8%. Under “Refrigerating 6° C., month 3”, this compound displayed a Content of 98.5% and a Total impurity of 1.3%. Where the note is “Refrigerating 6° C., month 6”, this compound returned a Content of 98.1% and a Total impurity of 1.6%. For the setting “Refrigerating 6° C., month 9”, the Content is reported as 97.5% and the Total impurity amounted to 2.1%. Under “Refrigerating 6° C., month 12”, this compound came in with a Content of 96.8% and a Total impurity of 3.2%.
Regarding `C[C@@H](O)[C@H]1C(=O)N2C(C(=O)[O-])=C(S[C@@H]3CN[C@H](C(=O)Nc4cccc(C(=O)O)c4)C3)[C@H](C)[C@H]12.[Na+]` [Amorphous, ertapenem sodium], the Content is 98.5% (Freezing −20° C., month 0); 98.4% (Freezing −20° C., month 3); 98.5% (Freezing −20° C., month 6); 98.2% (Freezing −20° C., month 9); 98.1% (Freezing −20° C., month 12); 98.5% (Refrigerating 6° C., month 0). For the same compound, the Content was determined as 97.9% (Refrigerating 6° C., month 3); 94.5% (Refrigerating 6° C., month 6); 92.3% (Refrigerating 6° C., month 9); 90.1% (Refrigerating 6° C., month 12). This compound yielded a Total impurity (Freezing −20° C., month 0) of 1.2%; a Total impurity (Freezing −20° C., month 3) of 1.2%; a Total impurity (Freezing −20° C., month 6) of 1.3%; a Total impurity (Freezing −20° C., month 9) of 1.5%; a Total impurity (Freezing −20° C., month 12) of 1.7%; a Total impurity (Refrigerating 6° C., month 0) of 1.2%. Moreover, the Total impurity (Refrigerating 6° C., month 3) was determined as 2.1%; the Total impurity (Refrigerating 6° C., month 6) is given as 5.3%; the Total impurity (Refrigerating 6° C., month 9) was 7.1%; the Total impurity (Refrigerating 6° C., month 12) came out at 9.3%.
`C[C@@H](O)[C@H]1C(=O)N2C(C(=O)[O-])=C(S[C@@H]3CN[C@H](C(=O)Nc4cccc(C(=O)O)c4)C3)[C@H](C)[C@H]12.[Na+]` [Crystalline form A, ertapenem sodium]: the “Stability compared between solid forms” value was “comparable stability, which is more stable than the amorphous product and the crystalline form D”. Moreover, where the note is “Freezing −20° C., month 0”, the Content worked out at 99.2% and the Total impurity was found to be 0.7%. For the setting “Freezing −20° C., month 3”, this compound showed a Content of 99.2% and a Total impurity of 0.7%. Moreover, where the note is “Freezing −20° C., month 6”, the Content worked out at 99.1% and the Total impurity was 0.7%. Also, under “Freezing −20° C., month 9”, the Content is recorded as 99.2% and the Total impurity was 0.7%. Further, under “Freezing −20° C., month 12”, the Content was 99.1% and the Total impurity stood at 0.7%. Also, where the note is “Refrigerating 6° C., month 0”, the Content is listed as 99.2% and the Total impurity was found to be 0.7%. Moreover, under “Refrigerating 6° C., month 3”, the Content stood at 98.6% and the Total impurity came out at 1.2%. For the same compound, where the note is “Refrigerating 6° C., month 6”, the Content worked out at 98.1% and the Total impurity came out at 1.5%. For the same compound, under “Refrigerating 6° C., month 9”, the Content is listed as 97.6% and the Total impurity is on record as 2.0%. Further, for the setting “Refrigerating 6° C., month 12”, the Content was 96.9% and the Total impurity turned out to be 3.0%.
In the case of `C[C@@H](O)[C@H]1C(=O)N2C(C(=O)[O-])=C(S[C@@H]3CN[C@H](C(=O)Nc4cccc(C(=O)O)c4)C3)[C@H](C)[C@H]12.[Na+]` [Crystalline form B, ertapenem sodium], the “Stability compared between solid forms” value was “comparable stability, which is more stable than the amorphous product and the crystalline form D”. Under “Freezing −20° C., month 0”, this compound showed a Content of 99.1% and a Total impurity of 0.8%. For the same compound, where the note is “Freezing −20° C., month 3”, the Content is on record as 99.1% and the Total impurity is reported as 0.8%. For the setting “Freezing −20° C., month 6”, this compound had a Content of 99.0% and a Total impurity of 0.9%. Besides, under “Freezing −20° C., month 9”, the Content was found to be 99.0% and the Total impurity came to 0.8%. In addition, for the setting “Freezing −20° C., month 12”, the Content was determined as 98.9% and the Total impurity is 0.9%. Besides, under “Refrigerating 6° C., month 0”, the Content is given as 99.1% and the Total impurity was determined as 0.8%. Where the note is “Refrigerating 6° C., month 3”, the Content amounted to 98.3% and the Total impurity is given as 1.4%. For the setting “Refrigerating 6° C., month 6”, this compound registered a Content of 98.0% and a Total impurity of 1.7%. Under “Refrigerating 6° C., month 9”, the Content is recorded as 97.5% and the Total impurity amounted to 2.1%. In addition, under “Refrigerating 6° C., month 12”, the Content stood at 96.6% and the Total impurity is listed as 3.3%.
As for `C[C@@H](O)[C@H]1C(=O)N2C(C(=O)[O-])=C(S[C@@H]3CN[C@H](C(=O)Nc4cccc(C(=O)O)c4)C3)[C@H](C)[C@H]12.[Na+]` [Crystalline form C, ertapenem sodium], the “Stability compared between solid forms” value was “comparable stability, which is more stable than the amorphous product and the crystalline form D”. Under “Freezing −20° C., month 0”, the Content is 99.2% and the Total impurity is recorded as 0.8%. Further, under “Freezing −20° C., month 3”, the Content is on record as 99.2% and the Total impurity was found to be 0.8%. In addition, for the setting “Freezing −20° C., month 6”, the Content is listed as 99.1% and the Total impurity is 0.8%. Under “Freezing −20° C., month 9”, this compound registered a Content of 99.2% and a Total impurity of 0.8%. In addition, where the note is “Freezing −20° C., month 12”, the Content is on record as 99.2% and the Total impurity turned out to be 0.8%. For the setting “Refrigerating 6° C., month 0”, the Content turned out to be 99.2% and the Total impurity was determined as 0.8%. Where the note is “Refrigerating 6° C., month 3”, this compound showed a Content of 98.7% and a Total impurity of 1.1%. For the same compound, under “Refrigerating 6° C., month 6”, the Content is listed as 98.2% and the Total impurity is 1.4%. Under “Refrigerating 6° C., month 9”, this compound showed a Content of 97.8% and a Total impurity of 1.9%. In addition, where the note is “Refrigerating 6° C., month 12”, the Content was found to be 96.9% and the Total impurity is listed as 3.0%.
For the compound `C[C@@H](O)[C@H]1C(=O)N2C(C(=O)[O-])=C(S[C@@H]3CN[C@H](C(=O)Nc4cccc(C(=O)O)c4)C3)[C@H](C)[C@H]12.[Na+]` [Crystalline form D, ertapenem sodium], the Content runs as follows: (Freezing −20° C., month 0) 98.8%; (Freezing −20° C., month 3) 98.7%; (Freezing −20° C., month 6) 98.7%; (Freezing −20° C., month 9) 98.6%; (Freezing −20° C., month 12) 98.5%; (Refrigerating 6° C., month 0) 98.8%. Moreover, the Content by setting is: (Refrigerating 6° C., month 3) 98.0%; (Refrigerating 6° C., month 6) 96.8%; (Refrigerating 6° C., month 9) 94.7%; (Refrigerating 6° C., month 12) 93.2%. The compound also yielded a Total impurity (Freezing −20° C., month 0) of 1.0%; a Total impurity (Freezing −20° C., month 3) of 1.1%; a Total impurity (Freezing −20° C., month 6) of 1.1%; a Total impurity (Freezing −20° C., month 9) of 1.2%; a Total impurity (Freezing −20° C., month 12) of 1.2%; a Total impurity (Refrigerating 6° C., month 0) of 1.0%. For the same compound, the Total impurity is, setting by setting: (Refrigerating 6° C., month 3) 1.9%; (Refrigerating 6° C., month 6) 3.1%; (Refrigerating 6° C., month 9) 4.6%; (Refrigerating 6° C., month 12) 6.5%.
